Measurements as given in publication PMC7304060, “Broad Spectrum Deubiquitinase Inhibition Induces Both Apoptosis and Ferroptosis in Cancer Cells” (Frontiers in Oncology, 2020).
Peptide text beside a SMILES is read from it.

Molecular target: T1, 20S proteasome (chymotrypsin-like peptidase) (Homo sapiens, UniProt P28074)
T1 construct: gene PSMB5; purified human 20S proteasome; chymotrypsin-like site (beta5, with beta6 contact)
T1 sequence (P28074 60-263): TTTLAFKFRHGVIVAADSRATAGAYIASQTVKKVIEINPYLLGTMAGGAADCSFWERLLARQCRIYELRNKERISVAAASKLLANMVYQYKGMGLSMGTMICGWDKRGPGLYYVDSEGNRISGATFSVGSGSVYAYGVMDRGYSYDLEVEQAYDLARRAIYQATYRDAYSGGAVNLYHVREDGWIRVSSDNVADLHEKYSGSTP
T1 sequence (P20618 29-241 partner): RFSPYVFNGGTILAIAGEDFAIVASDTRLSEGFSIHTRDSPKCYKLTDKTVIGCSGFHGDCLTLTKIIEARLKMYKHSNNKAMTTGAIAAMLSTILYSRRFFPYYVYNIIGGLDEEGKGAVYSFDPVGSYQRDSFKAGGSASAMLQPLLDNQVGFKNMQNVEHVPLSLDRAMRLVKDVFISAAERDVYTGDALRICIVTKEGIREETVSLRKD
Test: fluorogenic peptidase assay
Type: biochemical
Conditions: 37 °C; chymotrypsin-like site

With `Cc1cc(=O)oc2cc(NC(=O)[C@H](Cc3ccc(O)cc3)NC(=O)[C@@H](NC(=O)[C@H](CC(C)C)NC(=O)[C@H](CC(C)C)NC(=O)CCC(=O)O)C(C)C)ccc12` [Suc-LLVY-AMC, Suc-Leu-Leu-Val-Tyr-aminomethylcoumarin] (HELM PEPTIDE1{[O=C(O)CCC(=O)[*:2]].L.L.V.Y.[Cc1cc(=O)oc2cc(N[*:1])ccc12]}$$$$V2.0) the fluorogenic peptidase assay was “Chymotrypsin-like activity of the proteasome was assessed with fluorogenic Suc-LLVY-AMC substrate”.
